Results from PMC9668969 (Nature Communications, 2022).
Values joined by “and” are separate entries in the source; they are usually repeats but may differ in a detail not shown here. Equal values may be shown once. Read-outs that look alike come from different tables or passages of the source.

Tests used:
[1] = system: WT ELIC; assay: Asymmetric liposome stopped-flow Tl+ flux assay (no exchange vs exchange, 25 mol% outer leaflet POPG); type: biochemical, Erwinia chrysanthemi; design: key to Tl+ flux quenching rate, Avg. / Tl+ flux quenching rate: Tl+ influx rate kt at 2 ms from stretched-exponential fit (Eq. 2b); settings: for Tl+ flux quenching rate, Avg. / Tl+ flux quenching rate: Exchange: WT in 3:1 PC:PE, 25% POPG in outer leaflet by beta-CD; for Tl+ flux quenching rate: single experiments
Method: The fluorescence sequential-mixing stopped-flow liposomal flux measurements were carried using an SX20 stopped-flow spectrofluorometer (Applied Photophysics) and Pro-Data SX software[13],[30]. 7.5 mg of the respective lipid mixture (POPC, 1:1 POPC: POPE, 1:1 POPC:POPG, 3:1 POPC:POPE, 3:1 POPC:POPG, 2:1:1 POPC:POPE:POPG) was dried in a glass vial to a thin film under a constant stream of N2. The lipids were then further dried under vacuum in a desiccator overnight. The following day the lipids were hydrated in 500 µl of reconstitution buffer (100 mM NaNO3, 10 mM HEPES, pH 7) (Buffer R), 250 µl of 75 mM 8-Aminonaphthalene-1,3,6-Trisulfonic Acid (ANTS, ThermoFisher Scientific) in buffer R, and doped with ~18 mg of CHAPS (Anatrace). The mixture was vortexed and then sonicated with heat until completely solubilized. Following the sonication, the solution was brought to RT then 3.5 µl of 6.7 mg/ml ELIC in Buffer A with 0.02% DDM was added (3 µg per mg of lipid). This combined solution was incubated at RT for 30 min, followed by the addition of 1 ml of 1:1 v/v SM-2 BioBeads in Buffer R and an additional 250 µl of 75 mM ANTS in Buffer R. This mixture was incubated at RT for 2.5 hr with gentle mixing. The liposome suspension was then extruded with an Avanti mini-extruder and 0.1 µm membrane (30×). The extruded liposomes were stored at 13 °C overnight with gentle rotation. The next day, the liposomes were diluted to 2.5 mL using assay buffer (140 mM NaNO3, 10 mM HEPES, pH 7) (Stopped-flow Buffer A), loaded into a PD-10 desalting column (Cytiva), eluted with 3 mL of Stopped-flow Buffer A and subsequently diluted 5-fold with Stopped-flow Buffer A.
Using propylamine as the agonist, the assay and analysis was carried out as previously described[13],[30]. ELIC-containing liposomes were first mixed 1:1 with Buffer A containing 2× the concentration of propylamine. After a variable delay of 10 ms to 25 s, the sample was then mixed 1:1 with a quenching buffer (90 mM NaNO3, 50 mM TlNO3, 10 mM HEPES, pH 7), and ANTS fluorescence (ex. 360 nm, fluorescence above 420 nm) was recorded for 1 s. For each delay time, 5 repeat measurements were obtained. The data were collected using Applied Photophysics Pro-Data SX software. The fluorescence quenching traces were fit to a stretched exponential (Eq. 2a) and the rate of Tl^+ influx was determined at 2 ms (Eq. 2b).2a Ft=F∞+F0−F∞⋅e^−t/τ^β 2b kt=β/τ⋅2ms/τ^(β−1) where Ft, F∞, F0 are the fluorescence at time t, final fluorescence and initial fluorescence. τ is the time constant, β the stretched exponential factor, and kt the calculated rate of Tl^+ influx at 2 ms. The time course of desensitization was also fit to a double exponential and a weighted time constant was calculated as was done for the patch-clamp data using Origin 2019b. All replicates were taken from independent samples.
Acceptor liposomes were prepared as described in the Stopped-flow fluorescence recordings section until completion of the extrusion step. The preparation was scaled up 2x to produce samples for the no-exchange and exchange conditions. After extrusion and storage of the liposomes overnight at 13 °C, the double liposome preparation was split into two equal volume aliquots of ~1.5 ml. Using the excel spreadsheet provided by Markones et al.[44], donor POPG and methyl-β-cyclodextrin (MβCD, Sigma) concentrations and volumes were calculated to produce an outer leaflet POPG content of 25 mol% in the liposomes. The calculations assumed a ~6.66 mM lipid concentration and 1.5 mL volume of the acceptor liposome solution[44]. A MβCD-POPG (50% saturation of MβCD by POPG) solution was formed by combining 224 µL 7.5 mM POPG in Stopped-flow Buffer A, 650 µl 300 mM MβCD in Stopped-flow Buffer A, and 126 µL Stopped-flow Buffer A, which was then mixed at 50 °C and 1000 RPM for 20 min using an Eppendorf thermomixer. […]

[2] = system: WT ELIC; settings: without BaCl2; cited from earlier work
[3] = system: WT ELIC; assay: Tryptophan stopped-flow fluorescence measurements (rapid mixing with agonist, DDM); type: biochemical, Erwinia chrysanthemi; settings: for Normalized change in TRP fluorescence: single experiments
Method: To measure the tryptophan (Trp) fluorescence emission of ELIC, WT or W206F ELIC was diluted to 3 ml (0.02 mg/ml) and an emission spectrum was collected in a quartz fluorescence cell using a Fluoromax Plus Spectrofluorometer (Horiba Scientific). Excitation was set at 295 nm and an emission spectrum was collected from 320 to 380 nm. Trp fluorescence measurements with rapid mixing of agonist was carried out using the SX20 stopped-flow spectrofluorometer, outfitted with a 295 nm LED excitation source. Purified ELIC was diluted to 0.1 mg/ml in Trp Stopped-flow Buffer A (10 mM Tris pH 7.5, 100 mM NaCl, 0.05% DDM). A single mixing experiment was performed by mixing ELIC with equal volumes of Buffer A + propylamine. Propylamine was prepared at varying concentrations at 2x the final concentration. The instrument dead time was ~1 ms, enabling capture of most of the time course of change in Trp fluorescence. The time course of decrease in Trp fluorescence after rapid mixing with propylamine was fit to a single exponential to obtain a time constant for the rate of decrease and a measure of the extent of decrease. All replicates were taken from distinct samples.

[4] = 25 mol% in outer leaflet, 10 mM propylamine
[5] = 10 mM propylamine, delay 0.01 s
[6] = 10 mM propylamine, delay 0.05 s
[7] = 10 mM propylamine, delay 0.25 s

In the case of CCCCCCCC/C=C\CCCCCCCC(=O)OC(COC(=O)CCCCCCCCCCCCCCC)COP(=O)(O)OCC(O)CO (stereo not drawn) [POPG, 1-palmitoyl-2-oleoyl-phosphatidylglycerol], the “time constant of desensitization” value ([1]; 25% POPG introduced to the outer leaflet) is reported as ~ 6 s, the “effect on peak agonist response” value [1, 4] is reported as “increased the peak agonist response approximately two-fold” and the “effect on rate of desensitization” value [1, 4] is reported as “reduced the rate of desensitization”. The “Tl+ flux quenching rate, Avg.” value [1, 5] was 18.3739, the “Tl+ flux quenching rate, Avg.” value ([1]; 10 mM propylamine, delay 0.025 s) was 13.1397 and the “Tl+ flux quenching rate, Avg.” value [1, 6] was 28.9905. For the same molecule, the “Tl+ flux quenching rate, Avg.” value ([1]; 10 mM propylamine, delay 0.1 s) was 40.2879, the “Tl+ flux quenching rate, Avg.” value [1, 7] was 49.694 and the “Tl+ flux quenching rate, Avg.” value ([1]; 10 mM propylamine, delay 0.5 s) was 74.7874. For the same molecule, the “Tl+ flux quenching rate, Avg.” value ([1]; 10 mM propylamine, delay 1 s) was 70.2446, the “Tl+ flux quenching rate, Avg.” value ([1]; 10 mM propylamine, delay 2.5 s) was 59.7249 and the “Tl+ flux quenching rate, Avg.” value ([1]; 10 mM propylamine, delay 5 s) was 40.3668. For the same molecule, the “Tl+ flux quenching rate, Avg.” value ([1]; 10 mM propylamine, delay 10 s) was 38.6421, the “Tl+ flux quenching rate, Avg.” value ([1]; 10 mM propylamine, delay 25 s) was 9.131 and the “Tl+ flux quenching rate” value [1, 5] was 25.3857 and 14.5673 and 13.3121 and 20.2302. For the same molecule, the “Tl+ flux quenching rate” value [1, 6] was 31.4624 and 22.583 and 30.1073 and 31.8092, the “Tl+ flux quenching rate” value [1, 7] was 55.8845 and 34.2232 and 67.362 and 41.3064 and the “Tl+ flux quenching rate” value ([1]; 10 mM propylamine, delay 0.5 s) was 114.141 and 61.2513 and 65.8238 and 57.9331.

In the case of NCCS [cysteamine], the EC50 [2] is listed as 1 to 2 mM.

For CCCN [propylamine], the “time constant of TRP fluorescence decrease” value ([3]; 10 mM propylamine, DDM) was 9.9 ± 0.6 ms, the “Normalized change in TRP fluorescence, Average” value (from here on “Normalized change … Average”) ([3]; DDM, Propylamine 0.3 mM) was 0.01079 and the “Normalized change … Average” value ([3]; DDM, Propylamine 1 mM) was 0.08703. The “Normalized change … Average” value ([3]; DDM, Propylamine 3 mM) was 0.49, the “Normalized change in TRP fluorescence” value ([3]; DDM, Propylamine 3 mM) was 0.3909 and 0.6901 and 0.389 and the “Normalized change … Average” value ([3]; DDM, Propylamine 10 mM) was 0.7765. For the same molecule, the “Normalized change in TRP fluorescence” value ([3]; DDM, Propylamine 10 mM) was 0.6381 and 0.8944 and 0.797, the “Normalized change … Average” value ([3]; DDM, Propylamine 30 mM) was 0.9154 and the “Normalized change in TRP fluorescence” value ([3]; DDM, Propylamine 30 mM) was 0.9392 and 0.8561 and 0.951. For the same molecule, the “Normalized change … Average” value ([3]; DDM, Propylamine 100 mM) was 1, the “Normalized change in TRP fluorescence” value ([3]; DDM, Propylamine 100 mM) was 1 and the “Hill n of normalized change in TRP fluorescence” value ([3]; ELIC in DDM) was 1.6 ± 0.3. The EC50 ([3]; ELIC in DDM, Hill fit, read-out: EC50 of normalized change in TRP fluorescence) was 4.3 ± 0.8 mM and the “rate of decrease in tryptophan fluorescence relative to channel opening (fold faster)” value ([3]; vs Tl+ flux in 2:1:1 or POPC liposomes) was 2–4 ×.
